ChEMBL document CHEMBL3217497, “Design, synthesis and antiproliferative activity of indole analogues of indanocine” (2013)

Legend:
Assay type in all cases: functional
[1] = Cytotoxicity against human OVCAR5 cells assessed as growth inhibition; conditions: OVCAR-5
[2] = Cytotoxicity against human EKVX cells assessed as growth inhibition
[3] = Cytotoxicity against human UACC62 cells assessed as growth inhibition; conditions: UACC-62
[4] = system: KM12; test: Cytotoxicity against human KM12 cells assessed as growth inhibition
[5] = system: HT-29; test: Cytotoxicity against human HT-29 cells assessed as growth inhibition
[6] = system: T47D; test: Cytotoxicity against human T47D cells assessed as growth inhibition
[7] = system: RXF 393; test: Cytotoxicity against human RXF393 cells assessed as growth inhibition
[8] = system: HOP-62; test: Cytotoxicity against human HOP62 cells assessed as growth inhibition
[9] = system: ACHN; test: Cytotoxicity against human ACHN cells assessed as growth inhibition
[10] = system: SK-MEL-2; test: Cytotoxicity against human SK-MEL-2 cells assessed as growth inhibition
[11] = system: SF-268; test: Cytotoxicity against human SF268 cells assessed as growth inhibition
[12] = system: SK-MEL-28; test: Cytotoxicity against human SK-MEL-28 cells assessed as growth inhibition
[13] = system: MOLT-4; test: Cytotoxicity against human MOLT4 cells assessed as growth inhibition
[14] = system: BT-549; test: Cytotoxicity against human BT549 cells assessed as growth inhibition
[15] = system: SW-620; test: Cytotoxicity against human SW620 cells assessed as growth inhibition
[16] = system: SN12C; test: Cytotoxicity against human SN12C cells assessed as growth inhibition
[17] = Cytotoxicity against human NCI-ADR-RES cells assessed as growth inhibition
[18] = Cytotoxicity against human OVCAR8 cells assessed as growth inhibition; conditions: OVCAR-8
[19] = system: HCC 2998; test: Cytotoxicity against human HCC2998 cells assessed as growth inhibition
[20] = Cytotoxicity against human HCT15 cells assessed as growth inhibition; conditions: HCT-15
[21] = system: MDA-MB-468; test: Cytotoxicity against human MDA-MB-468 cells assessed as growth inhibition
[22] = system: MDA-MB-231; test: Cytotoxicity against human MDA-MB-231 cells assessed as growth inhibition
[23] = system: SK-OV-3; test: Cytotoxicity against human SKOV3 cells assessed as growth inhibition
[24] = system: SR; test: Cytotoxicity against human SR cells assessed as growth inhibition
[25] = system: SNB-19; test: Cytotoxicity against human SNB19 cells assessed as growth inhibition
[26] = system: RPMI-8226; test: Cytotoxicity against human RPMI8226 cells assessed as growth inhibition
[27] = system: Malme-3M; test: Cytotoxicity against human MALME-3M cells assessed as growth inhibition
[28] = system: COLO 205; test: Cytotoxicity against human COLO205 cells assessed as growth inhibition
[29] = system: IGROV-1; test: Cytotoxicity against human IGROV1 cells assessed as growth inhibition
[30] = system: M14; test: Cytotoxicity against human M14 cells assessed as growth inhibition
[31] = system: U-251; test: Cytotoxicity against human U251 cells assessed as growth inhibition
[32] = system: SNB-75; test: Cytotoxicity against human SNB75 cells assessed as growth inhibition
[33] = system: SK-MEL-5; test: Cytotoxicity against human SK-MEL-5 cells assessed as growth inhibition
[34] = system: MDA-MB-435; test: Cytotoxicity against human MDA-MB-435 cells assessed as growth inhibition
[35] = system: K562; test: Cytotoxicity against human K562 cells assessed as growth inhibition
[36] = Cytotoxicity against human OVCAR4 cells assessed as growth inhibition; conditions: OVCAR-4
[37] = system: A498; test: Cytotoxicity against human A498 cells assessed as growth inhibition
[38] = Cytotoxicity against human UACC257 cells assessed as growth inhibition; conditions: UACC-257
[39] = system: SF-295; test: Cytotoxicity against human SF295 cells assessed as growth inhibition
[40] = system: PC-3; test: Cytotoxicity against human PC3 cells assessed as growth inhibition
[41] = system: CAKI-1; test: Cytotoxicity against human CAKI-1 cells assessed as growth inhibition
[42] = Cytotoxicity against human UO31 cells assessed as growth inhibition; conditions: UO-31
[43] = system: HL-60(TB); test: Cytotoxicity against human HL-60(TB) cells assessed as growth inhibition
[44] = system: 786-0; test: Cytotoxicity against human 786-0 cells assessed as growth inhibition
[45] = system: SF-539; test: Cytotoxicity against human SF539 cells assessed as growth inhibition
[46] = system: TK-10; test: Cytotoxicity against human TK10 cells assessed as growth inhibition
[47] = system: NCI-H322M; test: Cytotoxicity against human NCI-H322M cells assessed as growth inhibition
[48] = Cytotoxicity against human OVCAR3 cells assessed as growth inhibition; conditions: OVCAR-3
[49] = system: NCI-H460; test: Cytotoxicity against human NCI-H460 cells assessed as growth inhibition
[50] = system: LOX IMVI; test: Cytotoxicity against human LOXIMVI cells assessed as growth inhibition
[51] = system: NCI-H23; test: Cytotoxicity against human NCI-H23 cells assessed as growth inhibition
[52] = system: A549; test: Cytotoxicity against human A549 cells assessed as growth inhibition
[53] = system: DU-145; test: Cytotoxicity against human DU145 cells assessed as growth inhibition
[54] = system: HOP-92; test: Cytotoxicity against human HOP92 cells assessed as growth inhibition
[55] = system: NCI-H226; test: Cytotoxicity against human NCI-H226 cells assessed as growth inhibition
[56] = system: CCRF-CEM; test: Cytotoxicity against human CCRF-CEM cells assessed as growth inhibition
[57] = system: MCF7; test: Cytotoxicity against human MCF7 cells assessed as growth inhibition
[58] = system: HCT-116; test: Cytotoxicity against human HCT116 cells assessed as growth inhibition
[59] = Cytotoxicity against human Hs 578T cells assessed as growth inhibition
[60] = system: NCI-H522; test: Cytotoxicity against human NCI-H522 cells assessed as growth inhibition

`Cc1cc(/C=C2\CCc3c([nH]c4ccccc34)C2=O)cc(C)c1O` gave a GI50 [1] of 2350 nM, a GI50 [2] of 3380 nM and a GI50 [3] of 420 nM. The GI50 [4] was 390 nM, the GI50 [5] was 4320 nM and the GI50 [6] was 740 nM. For the same compound, the GI50 [7] was 520 nM, the GI50 [8] was 650 nM and the GI50 [9] was 770 nM. For the same compound, the GI50 [10] was 320 nM, the GI50 [11] was 730 nM and the GI50 [12] was 740 nM. It also gave a GI50 [13] of 560 nM, a GI50 [14] of 530 nM and a GI50 [15] of 410 nM. The GI50 [16] was 620 nM, the GI50 [17] was 310 nM and the GI50 [18] was 530 nM. For the same compound, the GI50 [19] was 2210 nM, the GI50 [20] was 420 nM and the GI50 [21] was 290 nM. For the same compound, the GI50 [22] was 1060 nM, the GI50 [23] was 470 nM and the GI50 [24] was 220 nM. For the same compound, the GI50 [25] was 580 nM, the GI50 [26] was 470 nM and the GI50 [27] was 380 nM. The GI50 [28] was 14200 nM, the GI50 [29] was 740 nM and the GI50 [30] was 340 nM. For the same compound, the GI50 [31] was 430 nM, the GI50 [32] was 290 nM and the GI50 [33] was 330 nM. The GI50 [34] was 120 nM, the GI50 [35] was 320 nM and the GI50 [36] was 1350 nM. The GI50 [37] was 1830 nM, the GI50 [38] was 370 nM and the GI50 [39] was 1880 nM. For the same compound, the GI50 [40] was 1060 nM, the GI50 [41] was 610 nM and the GI50 [42] was 450 nM. For the same compound, the GI50 [43] was 210 nM, the GI50 [44] was 880 nM and the GI50 [45] was 320 nM. It also gave a GI50 [46] of 540 nM, a GI50 [47] of 530 nM and a GI50 [48] of 330 nM. It also gave a GI50 [49] of 410 nM, a GI50 [50] of 760 nM and a GI50 [51] of 650 nM. For the same compound, the GI50 [52] was 550 nM, the GI50 [53] was 540 nM and the GI50 [54] was 780 nM. The GI50 [55] was 3290 nM, the GI50 [56] was 360 nM and the GI50 [57] was 350 nM. For the same compound, the GI50 [58] was 440 nM, the GI50 [59] was 380 nM and the GI50 [60] was 130 nM.
With `COc1cc2c(c(N)c1OC)C(=O)/C(=C\c1cc(C)c(O)c(C)c1)C2` [INDANOCINE] the GI50 [1] was 630 nM, the GI50 [2] was 10 nM and the GI50 [3] was 10 nM. For the same compound, the GI50 [4] was 10 nM, the GI50 [5] was 2510 nM and the GI50 [6] was 100000 nM. The GI50 [7] was 30 nM, the GI50 [8] was 20 nM and the GI50 [9] was 60 nM. It also gave a GI50 [10] of 1000 nM, a GI50 [11] of 10 nM and a GI50 [12] of 1000 nM. For the same compound, the GI50 [13] was 10 nM, the GI50 [14] was 10000 nM and the GI50 [15] was 10 nM. For the same compound, the GI50 [16] was 10 nM, the GI50 [17] was 10 nM and the GI50 [18] was 10 nM. It also gave a GI50 [19] of 2000 nM, a GI50 [20] of 10 nM and a GI50 [22] of 10 nM. For the same compound, the GI50 [23] was 10 nM, the GI50 [24] was 10 nM and the GI50 [25] was 10 nM. The GI50 [26] was 10 nM, the GI50 [28] was 5010 nM and the GI50 [29] was 40 nM. The GI50 [30] was 10 nM, the GI50 [31] was 20 nM and the GI50 [33] was 10 nM. The GI50 [34] was 10 nM, the GI50 [35] was 10 nM and the GI50 [36] was 7940 nM. For the same compound, the GI50 [37] was 7940 nM, the GI50 [38] was 100000 nM and the GI50 [39] was 60 nM. It also gave a GI50 [40] of 10 nM, a GI50 [41] of 3980 nM and a GI50 [42] of 80 nM. For the same compound, the GI50 [43] was 10 nM, the GI50 [44] was 10 nM and the GI50 [45] was 10 nM. It also gave a GI50 [46] of 79400 nM, a GI50 [47] of 10 nM and a GI50 [48] of 10 nM. For the same compound, the GI50 [49] was 10 nM, the GI50 [50] was 10 nM and the GI50 [51] was 10 nM. The GI50 [52] was 10 nM, the GI50 [53] was 10 nM and the GI50 [54] was 100000 nM. The GI50 [55] was 3980 nM, the GI50 [56] was 10 nM and the GI50 [57] was 10 nM. The GI50 [58] was 10 nM and the GI50 [60] was 10 nM.
